Test results as given in ChEMBL document CHEMBL4840303, “Design, synthesis, biological evaluation and pharmacophore model analysis of novel tetrahydropyrrolo[3,4-c]pyrazol derivatives as potential TRKs inhibitors” (Eur J Med Chem, 2021).

Experiments:
[1] = target: High affinity nerve growth factor receptor (Homo sapiens, UniProt P04629); assay: Inhibition of N-terminal GST-tagged human TRKA (436 to 790 residues) expressed in baculovirus infected Sf21 cells using TK as substrate in presence of ATP measured after 30 mins by HTRF assay
High affinity nerve growth factor receptor, sequence (P04629 whole entry, the tested form may be a part): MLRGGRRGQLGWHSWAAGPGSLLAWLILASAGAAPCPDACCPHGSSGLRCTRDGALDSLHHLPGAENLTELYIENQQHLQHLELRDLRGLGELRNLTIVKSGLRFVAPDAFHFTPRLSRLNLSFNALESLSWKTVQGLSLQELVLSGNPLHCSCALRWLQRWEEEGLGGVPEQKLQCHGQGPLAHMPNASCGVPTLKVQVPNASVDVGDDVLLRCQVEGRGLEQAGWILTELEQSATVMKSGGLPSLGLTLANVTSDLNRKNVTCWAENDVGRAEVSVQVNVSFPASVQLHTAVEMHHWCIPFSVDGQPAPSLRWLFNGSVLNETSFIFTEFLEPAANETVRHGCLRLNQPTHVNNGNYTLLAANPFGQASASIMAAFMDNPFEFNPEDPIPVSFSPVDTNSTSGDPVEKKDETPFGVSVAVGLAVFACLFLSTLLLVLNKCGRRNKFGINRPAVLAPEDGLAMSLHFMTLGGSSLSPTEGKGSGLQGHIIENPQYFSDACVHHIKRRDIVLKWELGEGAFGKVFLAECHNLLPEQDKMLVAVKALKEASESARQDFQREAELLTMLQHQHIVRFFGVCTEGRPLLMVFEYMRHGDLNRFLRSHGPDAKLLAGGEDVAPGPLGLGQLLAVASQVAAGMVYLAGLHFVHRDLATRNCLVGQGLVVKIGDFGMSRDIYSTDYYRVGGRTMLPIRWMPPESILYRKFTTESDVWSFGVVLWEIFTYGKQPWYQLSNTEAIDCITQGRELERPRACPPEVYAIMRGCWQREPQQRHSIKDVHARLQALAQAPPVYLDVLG

[2] = test system: KM12; assay: cells; settings: Homo sapiens, KM12, 72 h
Description: Antiproliferative activity against human KM12 cells assessed as inhibition of cell growth measured after 72 hrs by CCK-8 assay

[3] = test system: THLE-2; assay: cells; settings: Homo sapiens, THLE-2, 72 h
Description: Antiproliferative activity against human THLE-2 cells assessed as inhibition of cell growth measured after 72 hrs by CCK-8 assay

[4] = test system: A549; assay: cells; settings: Homo sapiens, A549, 72 h
Description: Antiproliferative activity against human A549 cells assessed as inhibition of cell growth measured after 72 hrs by CCK-8 assay

[5] = target: T1, BDNF/NT-3 growth factors receptor (Homo sapiens, UniProt Q16620); assay: Inhibition of N-terminal GST-tagged human TRKB (456 to 822 residues) expressed in baculovirus infected Sf21 cells using TK as substrate in presence of ATP measured after 40 mins by HTRF assay
T1 sequence (Q16620 whole entry, the tested form may be a part): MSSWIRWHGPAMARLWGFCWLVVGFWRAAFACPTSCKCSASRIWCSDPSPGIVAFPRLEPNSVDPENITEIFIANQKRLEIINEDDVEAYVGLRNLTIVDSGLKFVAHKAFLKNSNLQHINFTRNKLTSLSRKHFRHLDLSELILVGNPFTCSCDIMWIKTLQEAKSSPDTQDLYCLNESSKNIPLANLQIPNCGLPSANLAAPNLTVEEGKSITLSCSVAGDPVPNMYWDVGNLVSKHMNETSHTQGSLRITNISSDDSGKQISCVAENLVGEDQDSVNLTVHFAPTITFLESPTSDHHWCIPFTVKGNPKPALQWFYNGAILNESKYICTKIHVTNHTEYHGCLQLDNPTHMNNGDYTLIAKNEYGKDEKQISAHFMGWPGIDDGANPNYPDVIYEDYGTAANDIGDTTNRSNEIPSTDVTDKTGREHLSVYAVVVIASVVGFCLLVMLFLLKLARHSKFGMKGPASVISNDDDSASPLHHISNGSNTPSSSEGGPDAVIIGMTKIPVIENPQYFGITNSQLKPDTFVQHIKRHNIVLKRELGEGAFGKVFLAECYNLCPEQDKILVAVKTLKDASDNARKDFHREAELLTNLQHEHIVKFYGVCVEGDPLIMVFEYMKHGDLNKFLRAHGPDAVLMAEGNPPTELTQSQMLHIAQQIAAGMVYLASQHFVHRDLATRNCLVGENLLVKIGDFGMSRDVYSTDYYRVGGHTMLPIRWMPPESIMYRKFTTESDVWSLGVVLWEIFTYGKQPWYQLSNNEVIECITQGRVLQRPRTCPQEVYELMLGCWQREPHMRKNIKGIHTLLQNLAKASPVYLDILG

[6] = target: NT-3 growth factor receptor (Homo sapiens, UniProt Q16288); assay: Inhibition of NT3-activated full length TRKC (unknown origin) by Cell-based beta-galactosidase PathHunter assay
NT-3 growth factor receptor, sequence (Q16288 whole entry): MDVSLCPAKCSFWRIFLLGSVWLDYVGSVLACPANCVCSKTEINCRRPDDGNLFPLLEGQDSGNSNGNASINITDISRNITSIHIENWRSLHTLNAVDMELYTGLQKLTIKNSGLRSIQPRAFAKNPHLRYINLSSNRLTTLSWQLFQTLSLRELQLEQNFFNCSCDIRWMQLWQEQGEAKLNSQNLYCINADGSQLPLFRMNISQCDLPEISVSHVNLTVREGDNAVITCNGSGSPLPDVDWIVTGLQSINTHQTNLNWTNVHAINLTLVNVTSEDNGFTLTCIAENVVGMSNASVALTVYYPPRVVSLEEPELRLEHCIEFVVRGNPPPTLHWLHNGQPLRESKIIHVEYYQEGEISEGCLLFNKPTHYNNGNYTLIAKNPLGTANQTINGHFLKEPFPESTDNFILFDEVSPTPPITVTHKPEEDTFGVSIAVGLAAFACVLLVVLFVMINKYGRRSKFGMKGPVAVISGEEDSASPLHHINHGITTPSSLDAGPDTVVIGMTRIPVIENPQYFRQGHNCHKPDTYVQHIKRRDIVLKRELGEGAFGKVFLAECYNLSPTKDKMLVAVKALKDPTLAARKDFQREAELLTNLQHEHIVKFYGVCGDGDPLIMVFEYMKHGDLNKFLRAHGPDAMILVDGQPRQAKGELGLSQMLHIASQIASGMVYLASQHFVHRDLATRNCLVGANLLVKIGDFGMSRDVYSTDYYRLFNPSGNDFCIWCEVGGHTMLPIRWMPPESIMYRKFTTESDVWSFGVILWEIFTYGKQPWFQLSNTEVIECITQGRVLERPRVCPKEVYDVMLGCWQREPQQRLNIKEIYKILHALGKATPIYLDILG

[7] = target: T1, BDNF/NT-3 growth factors receptor; assay: Inhibition of BDNF-activated full length TRKB (unknown origin) by Cell-based beta-galactosidase PathHunter assay

Structure (SMILES)	IC50 [1] [µM]	also measured
CN1CCN(c2ccc(C(=O)Nc3n[nH]c4c3CN(Cc3cccc(F)c3F)C4(C)C)cc2)CC1	0.017	IC50 [2]: 0.216 µM; IC50 [3]: > 100 µM; IC50 [4]: 64.2 µM; IC50 [5]: 0.023 µM
CC1(C)c2[nH]nc(NC(=O)c3ccc4ncccc4c3)c2CN1Cc1cc(F)cc(F)c1	0.18	
CC1(C)c2[nH]nc(NC(=O)c3ccc(F)cc3)c2CN1Cc1cc(F)cc(F)c1	0.35	
CC1(C)c2[nH]nc(NC(=O)c3ccccc3)c2CN1Cc1cccc(Br)c1	0.94	
CC1(C)c2[nH]nc(NC(=O)c3ccccc3)c2CN1Cc1cccc(F)c1	0.47	
CC1(C)c2[nH]nc(NC(=O)c3ccccc3)c2CN1Cc1ccc(F)c(F)c1	0.68	
CC1(C)c2[nH]nc(NC(=O)c3cccc(N4CCOCC4)c3)c2CN1Cc1cc(F)cc(F)c1	0.12	IC50 [2]: > 1 µM; IC50 [5]: 0.17 µM
Cc1cccc(CN2Cc3c(NC(=O)c4ccccc4)n[nH]c3C2(C)C)c1	1.1	
CC1(C)c2[nH]nc(NC(=O)c3ccccc3)c2CN1Cc1c(F)cccc1F	0.52	
CC1(C)c2[nH]nc(NC(=O)c3ccccc3)c2CN1Cc1cc(F)cc(F)c1	0.19	
CN(C)c1cccc(C(=O)Nc2n[nH]c3c2CN(Cc2cc(F)cc(F)c2)C3(C)C)c1	0.27	
CC1(C)c2[nH]nc(NC(=O)c3ccc(F)cc3)c2CN1Cc1cccc(F)c1F	0.21	
CC1(C)c2[nH]nc(NC(=O)c3ccc4ccccc4c3)c2CN1Cc1cccc(F)c1F	0.46	
CC1(C)c2[nH]nc(NC(=O)c3ccccc3)c2CN1Cc1cc(F)ccc1F	0.48	
CC1(C)c2[nH]nc(NC(=O)c3ccc(Br)cc3)c2CN1Cc1cccc(F)c1F	0.95	
Cc1ccc(F)c(CN2Cc3c(NC(=O)c4ccccc4)n[nH]c3C2(C)C)c1	0.88	
CN(C)c1ccc(C(=O)Nc2n[nH]c3c2CN(Cc2cc(F)cc(F)c2)C3(C)C)cc1	0.096	
CC1(C)c2[nH]nc(NC(=O)c3ccc(N4CCOCC4)cc3)c2CN1Cc1cccc(F)c1F	0.029	IC50 [2]: 0.146 µM; IC50 [3]: 49.5 µM; IC50 [4]: 88.5 µM; IC50 [5]: 0.035 µM
CC1(C)c2[nH]nc(NC(=O)c3ccccc3)c2CN1Cc1cccc(I)c1	1.36	
Cc1ccc(CN2Cc3c(NC(=O)c4ccccc4)n[nH]c3C2(C)C)cc1F	0.94	
CC1(C)c2[nH]nc(NC(=O)c3ccccc3)c2CN1Cc1cc(F)cc(C(F)(F)F)c1	1	

Structure (SMILES)	IC50 [1] [µM]	also measured
CC1(C)c2[nH]nc(NC(=O)c3ccc(N4CCOCC4)cc3)c2CN1Cc1cc(F)cc(F)c1	0.014	IC50 [2]: 0.211 µM; IC50 [3]: > 100 µM; IC50 [4]: > 100 µM; IC50 [5]: 0.027 µM
CC1(C)c2[nH]nc(NC(=O)c3ccccc3)c2CN1Cc1cc(F)c(F)c(F)c1	6.96	
CC1(C)c2[nH]nc(NC(=O)c3ccccc3)c2CN1Cc1cccc(Cl)c1	0.67	
CC1(C)c2[nH]nc(NC(=O)c3cccc(N4CCOCC4)c3)c2CN1Cc1cccc(F)c1F	0.27	
CC1(C)c2[nH]nc(NC(=O)c3ccc(N4CC[N+](C)(Cc5cc(F)cc(F)c5)CC4)cc3)c2CN1Cc1cc(F)cc(F)c1	0.095	
CC1(C)c2[nH]nc(NC(=O)c3ccccc3)c2CN1Cc1cccc(F)c1F	0.2	
CC1(C)c2[nH]nc(NC(=O)c3ccccc3)c2CN1Cc1cc(C(F)(F)F)cc(C(F)(F)F)c1	16.4	
CC1(C)c2[nH]nc(NC(=O)c3ccccc3)c2CN1Cc1cccc(C#N)c1	0.98	
COc1cccc(CN2Cc3c(NC(=O)c4ccccc4)n[nH]c3C2(C)C)c1	1.12	
CC1(C)c2[nH]nc(NC(=O)c3ccccc3)c2CN1Cc1ccccc1	1.24	
CC1(C)c2[nH]nc(NC(=O)c3ccccc3)c2CN1Cc1ccc(F)cc1F	2.32	
CN1CCN(c2cccc(C(=O)Nc3n[nH]c4c3CN(Cc3cc(F)cc(F)c3)C4(C)C)c2)CC1	0.15	IC50 [2]: > 1 µM; IC50 [5]: 0.19 µM
CN1CCN(c2cccc(C(=O)Nc3n[nH]c4c3CN(Cc3cccc(F)c3F)C4(C)C)c2)CC1	0.21	
CN(C)c1cccc(C(=O)Nc2n[nH]c3c2CN(Cc2cccc(F)c2F)C3(C)C)c1	0.42	
Cc1ncc(NC(=O)NC2c3ccccc3-c3ccccc32)c(-c2ccccc2)n1		IC50 [6]: 2.5 µM; IC50 [7]: > 8.1 µM
CC1(C)c2[nH]nc(NC(=O)c3ccccc3)c2CN1Cc1cccc([N+](=O)[O-])c1	0.6	
CN(C)c1ccc(C(=O)Nc2n[nH]c3c2CN(Cc2cccc(F)c2F)C3(C)C)cc1	0.069	
CC1(C)c2[nH]nc(NC(=O)c3ccccc3)c2CN1Cc1ccc(F)cc1	1.18	
CC1(C)c2[nH]nc(NC(=O)c3ccc4ccccc4c3)c2CN1Cc1cc(F)cc(F)c1	0.44	
CC1(C)c2[nH]nc(NC(=O)c3ccccc3)c2CN1Cc1ccccc1F	0.45	
CC1(C)c2[nH]nc(NC(=O)c3ccc(Br)cc3)c2CN1Cc1cc(F)cc(F)c1	0.71	
